Legend:
[1] = Example 7 Part II: food effect, single oral 200 mg 3-APS in young male subjects, plasma pharmacokinetics; type: in vivo, human; conditions: single oral 200 mg (Table 3 formulation); for Cmax: male, po, 200 mg
Experimental: In the following examples and elsewhere herein, terms are as defined below. The pharmacokinetic parameters were derived by non-compartmental analysis using WinNonlin® (Pharsight Corporation, Mountain View, Calif.) or SAS® for Windows® (SAS Institute Inc., Cary, N.C.).
Following single oral dosing of 200 mg 3-APS (modified-release coated formulation as described in Table 3 above) to young male subjects (aged between 18 and 45 years) under fasted and fed (high fat) conditions, maximum plasma concentrations of 3-APS are attained […] post-dose under fasted and fed conditions, respectively (Table 9A).

[2] = Example 12: 3-APS concentration in cerebrospinal fluid of CAA patients; type: in vivo; conditions: human, oral, 5 hours post-dose on Week 12, range of means, CSF samples from five patients, some below lower limit of quantitation, read-out: mean concentrations of 3-APS in the cerebrospinal fluid (CSF)
Experimental: A total of 24 patients who have had lobar cerebral hemorrhage are randomized to receive in a 1:1:1 ratio 3-APS 50, 100 or 150 mg BID for 12 weeks. A lumbar puncture is performed on an optional basis at Weeks 0 and 12 to assess the pharmacological effect of 3-APS on Aβ40, Aβ42 and tau concentrations in cerebrospinal fluid (CSF) and to measure the drug concentration in the CSF. Rating instruments (NIHSS, Barthel Index, ADAS-cog and EXIT25) are administered at Weeks 0 and 12 to evaluate the neurological and cognitive functions as well as the daily functioning.
For pharmacokinetic investigations, blood samples are collected from each patient prior to dosing and at specified time points through 12 h post-dose after the first dose (Week 0) and the last dose (Week 12). Blood samples are also collected prior to the first dose of the day during Week 2, 4 and 8 visits. CSF samples are obtained by lumbar puncture prior to dosing on Week 0 and approximately 5 hours post-dose on Week 12.
The mean concentrations of 3-APS in the cerebrospinal fluid (CSF) 5 hours post-dose on Week 12 range from 3.28 to 4.10 ng/mL confirming that the central nervous system is exposed to the drug.

[3] = tested on: mild to moderate AD patients; assay: Example 11: open-label extension in AD patients, psychometric tests (ADAS-cog, CDR); type: in vivo, human; conditions: for average CDR score (change): after 20 months total on study medication, reported 12-month mean change +1.4 to 2.2 points in comparable patients
Text: The ADAS-cog test is described in […] Annals of Neurology 23:477-484, which is incorporated herein by reference. It is a validated scale developed specifically as a research instrument to evaluate the severity of cognitive deficits characteristic of patients with AD. This test can usually be administered to participants in less than one hour. The ADAS-cog ranges from 0 to 70 points, with higher scores indicating a greater degree of cognitive impairment. Improved performance can be measured in patients treated with formulations of the invention compared to placebo-treated patients at various time intervals. Improvement can be measured by detecting an improved score in the treated patients compared to untreated controls after 6 months, preferably 12 months, more preferably 18 months or longer. […] Patients with Alzheimer's disease typically show an annual increase in ADAS-cog scores of from about 4-9. An improvement would provide for a lessening in the increase compared to untreated controls, for example, an annual increase of less than about 5 points or 4 points, preferably 3 points, more preferably 2 points or 1 point or even a stabilization or decrease in the score.
The CDR is described in Morris, J (1993) Neurology 43: 2412-2414, which is incorporated herein by reference. Further to the discussion of the CDR test below, it is a global rating scale of dementia that is derived from ratings of impairment assigned by an independent rater in six domains, after approximately a 90-minute interview of the caregiver and participant (Hughes C P, Berg L, Danziger W L, et al. A New Clinical Scale for the Staging of Dementia. Brit. J. Psychiat 1982; 140: 566-572). The CDR scale is from 0-18 with a higher score indicating a worsening impairment. Impairment in each of the six domains is rated as “none” (O), “questionable” (0.5), “mild” (1), “moderate” (2) or “severe” (3). Improvement can be measured by detecting a lower score in the treated patients compared to controls after 6 months, preferably 12 months, more preferably 18 months or longer. […] Patients with Alzheimer's disease typically show an annual increase in CDR scores of from about 1-3. An improvement would provide for an annual increase of less than about 3 points or 2 points, preferably 1 point, more preferably 0.5 points or 0.25 points or even an improvement (reduction) in the score.
The patients from the clinical studies in Example 10 are offered 3-APS (formulation of Table 5 above) at 150 mg BID for an additional 17 months (thus, 20 months total) in an open-label study. For doses at multiples of 50 mg, multiple 50 mg tables are administered. Twenty-four mild to moderate AD patients complete the study. Psychometric tests (ADAS-cog) are performed at each visit, that is every 3 months for the first 9 months and every 4 months for the last […]. Overall, approximately 70% of the mild AD patients show stabilized or improved cognitive function tests after 20 months.

[4] = tested on: CSF Aβ42; assay: Example 11: additional tests, CSF Aβ42 level and Aβ42/Aβ40 ratio in treated patients; type: in vivo, human
Experimental: FIG. 1 Change from Baseline CSF Aβ42 versus 3-APS doses
FIG. 2 Effect of 3-APS on CSF Aβ42/40 Ratio in Mild-to-Moderate AD Patients—Placebo vs. 150 mg BID
FIG. 3 Effect of 3-APS on CSF Aβ42/40 Ratio in Mild-to-Moderate AD Patients 0 and 50 mg 3-APS
FIG. 4 Effect of 3-APS on CSF Aβ42/40 Ratio in Mild-to-Moderate AD Patients 100 and 150 mg 3-APS

NCCCS(=O)(=O)O [3-APS, 3-amino-1-propanesulfonic acid]
AUC(0-inf) ([1]; human, plasma, Fasting Arm, mean, only subjects with estimable elimination rate constant): 2400 ng·h/mL
AUC(0-t) ([1]; human, plasma, Fed Arm (high fat), n = 8, mean, read-out: AUC0-Tlast): 3870 ng·h/mL
Tmax ([1]; human, plasma, Fed Arm (high fat), n = 8, median): 13.5 h
Cmax ([1]; human, plasma, Fasting Arm, n = 8, mean): 594 ng/mL
Cmax ([1]; human, plasma, Fed Arm (high fat), n = 8, mean): 631 ng/mL
AUC0-Tlast ([1]; Fasting Arm, n = 8, mean): 2196 ng·h/mL
AUC∞ ([1]; Fed Arm (high fat), mean, only subjects with estimable elimination rate constant): 4497 ng·h/mL
concentration at 5 h [2]: 3.28 to 4.1 ng/mL
mild AD patients showing stabilized or improved cognitive function tests ([3]; 150 mg BID open-label (Table 5 tablet), after 20 months): approximately 70%
change from baseline in average ADAS-cog score ([3]; mild AD patients (n=13), 150 mg BID open-label, 20 months, comparable historical controls +8.6 points): +3.5 points
average CDR score (change) ([3]; mild AD patients): +2.36 points
average ADAS-cog score (change) ([3]; mild to moderate AD patients (n=24), 150 mg BID open-label, 20 months, comparable historical controls +10.3 points): +7.8 points
average CDR score (change) ([3]; moderate AD patients): 2.77 points
CSF Aβ42 levels ([4]; treated AD patients, FIG. 1): reduced CSF Aβ42 levels
ratio of Aβ42/Aβ40 (CSF) ([4]; treated mild-to-moderate AD patients, FIGS. 2, 3 and 4): reduced the ratio of Aβ42/Aβ40

Source: patent US20060251714A1, “Pharmaceutical formulations of amyloid inhibiting compounds” (priority 2005, published 2006)
